Here are results for 72 compounds from patent US8476197B2, “Aminopropenoates as fungicides” (priority 2009, dated 2013).

One may read the Log P as a log measure of how a compound divides between an organic and an aqueous phase. Read a high Log P as higher lipophilicity.

Marks after values point to notes of the source that are not given here.

For the first data set the following is noted: pH 2.3.
For the compound `CC(C)C(C)NC(=C(C#N)C(=O)NCC(F)(F)F)c1cccnc1Cl` (stereo not shown) [Compound 992], the “Log P” value is on record as 3.17.
As for `CCOC(=O)C(C#N)=C(NC(C)C(C)C)c1cccnc1Cl` (stereo not shown) [Compound 984], the “Log P” value turned out to be 3.22.
`CCOC(=O)C(C#N)=C(NC(C)C)c1cccnc1Cl` [Compound 823]: the “Log P” value is given as 2.54.
The same measure, in the same setting: under `CCOC(=O)C(C#N)=C(Nc1ccc(F)c(F)c1)c1cccnc1Cl` [Compound 1597] stands 3.
For the compound `C#CCNC(=O)C(C#N)=C(NC(C)C(C)C)c1cccnc1Cl` (stereo not shown) [Compound 991], the “Log P” value was 2.69.

Still in this data set, the particulars now being: pH 2.7.
Regarding `CCOC(=O)C(C#N)=C(NC(C)C(C)C)c1cnn(C)c1C(F)F` (stereo not shown) [Compound 1301], the “Log P” value is 3.23^[a].
`COC(=O)C(C#N)=C(NC(C)(C)C=C(Cl)Cl)c1sc(C)nc1C(F)(F)F` [Compound 1104]: the “Log P” value is 3.73^[a].
With `CCOC(=O)C(C#N)=C(NC(C(=O)OC)C(C)C)c1sccc1C(F)(F)F` (racemic) [Compound 658], the “Log P” value was 3.62^[a].
On to `CCOC(=O)C(C#N)=C(NC(C)c1nccs1)c1cc(Cl)sc1Cl` (racemic) [Compound 221], for which the log partition coefficient (Log P) was 3.65^[a].
Consider `CCOC(=O)C(C#N)=C(NC(C)c1ccccc1)c1sccc1C(F)(F)F` (mixture of isomers) [Compound 440], for which the “Log P” value is 4.16^[a].
Same read-out and setting: then `CCOC(=O)C(C#N)=C(NC(C)c1ccccn1)c1sccc1C(F)(F)F` (stereo not shown) [Compound 103], with 3.27^[a]; and `CCOC(=O)C(C#N)=C(NC(C)C(C)C)c1scnc1Cl` (stereo not shown) [Compound 1468], with 3.46^[a]; and `CCOC(=O)C(C#N)=C(Nc1ccccc1SC)c1nsc(Cl)c1Cl` [Compound 358], with 4.31^[a].
Consider `CCOC(=O)C(C#N)=C(NC(C)c1c(C)cccc1C)c1cccnc1Cl` (stereo not shown) [Compound 1534], for which the “Log P” value was 3.96^[a].
`CCOC(=O)C(C#N)=C(NC(C)(C)C#Cc1ccc(C)cc1)c1sc(C)nc1C(F)(F)F` [Compound 1098]: the “Log P” value was 4.92^[a].
`CCOC(=O)C(C#N)=C(NC1(CC2CC2)CC1)c1cccnc1Cl` [Compound 1642]: the “Log P” value is 3.53^[a].
In the case of `CCOC1CCCC1NC(=C(C#N)C(=O)OC)c1cccnc1Cl` (stereo not shown) [Compound 1059], the “Log P” value was 2.93^[a].
As to `CCOC(=O)C(C#N)=C(NC(C)C(C)C)c1cccnc1Cl` (stereo not shown) [Compound 984], the “Log P” value was 3.33.
On the same count and under the same terms, then `CCCC(C#N)NC(=C(C#N)C(=O)OCC)c1cn(C)nc1C(F)F` (racemic) [Compound 1250], with 2.77^[a]; and `COC(=O)C(C#N)=C(NC(C)C1(Cl)CC1)c1sc(C)nc1C(F)(F)F` (stereo not shown) [Compound 770], with 3.53^[a].
For `CCOC(=O)C(C#N)=C(NC1(c2c(F)cccc2F)CC1)c1cc(Cl)sc1Cl` [Compound 501], the “Log P” value is 4.62^[a].
Still for that read-out and setting: under `CCOC(=O)C(C#N)=C(NC(C)CC(=O)Nc1ccccc1C)c1cn(C)nc1C(F)F` (stereo not shown) [Compound 1138] stands 2.68^[a]; under `CCOC(=O)C(C#N)=C(NC1(c2ccc(Cl)cc2)CC1)c1cn(C)nc1C(F)F` [Compound 1360], 3.58^[a]; under `C=CCCCC(C=C)NC(=C(C#N)C(=O)OCC)c1sc(C)nc1C(F)(F)F` (stereo not shown) [Compound 1022], 4.49^[a].
Still for that read-out and setting: under `CCOC(=O)C(C#N)=C(NC(C)C1(Cl)CC1)c1sccc1C(F)(F)F` (stereo not shown) [Compound 769] stands 4.04^[a].
The same measure, in the same setting: then `C=Cc1nn(C)cc1C(NC(C)c1nccs1)=C(C#N)C(=O)OCC` (racemic) [Compound 238], with 2.3^[a]; and `CCOC(=O)C(C#N)=C(Nc1ccccc1SC(C)C)c1cc(C)oc1C` [Compound 421], with 4.57^[a]; and `CCOC(=O)C(C#N)=C(NC(C(=O)OC)c1ccccc1)c1cccnc1Cl` (stereo not shown) [Compound 1195], with 3.08^[a].
Turning to `CCOC(=O)C(C#N)=C(NC(C)Cc1nccs1)c1cccnc1Cl` (mixture of isomers) [Compound 294], the “Log P” value is 2.4^[a].
On the same count and under the same terms, then `CCOC(=O)C(C#N)=C(NC(C)C(C)C)c1cc(Cl)cc(Cl)n1` (stereo not shown) [Compound 983], with 4.26^[a]; and `C#CC(C)(C)NC(=C(C#N)C(=O)OCC)c1cn(C)nc1C(F)(F)F` [Compound 1031], with 3.02^[a].
The same measure, in the same setting: under `CCOC(=O)C(C#N)=C(NCc1ccccn1)c1ncc(C(F)(F)F)cc1Cl` [Compound 42] stands 2.98^[a]; under `CCOC(=O)C(C#N)=C(NC(C)C)c1cccnc1Cl` [Compound 823], 2.66.
Regarding `CCOC(=O)/C(C#N)=C(\NC(C)Cc1c[nH]c2ccccc12)c1sccc1Cl` (stereo not shown) [Compound 151], the “Log P” value was 3.8^[a].
Turning to `CCOC(=O)C(C#N)=C(Nc1ccccc1SC)c1conc1C` [Compound 363], the “Log P” value was 3.21^[a].
Same read-out and setting: then `CCOC(=O)C(C#N)=C(NC(C)c1nc(C)cs1)c1sccc1C(F)(F)F` (racemic) [Compound 174], with 3.58^[a]; and `COC(=O)CC(C)NC(=C(C#N)C(=O)OC)c1cccnc1Cl` (stereo not shown) [Compound 620], with 2.11^[a]; and `CCOC(=O)C(C#N)=C(NC(C)(C)C(C)(C)C)c1cn(C)nc1C(F)F` [Compound 753], with 3.46^[a].
Take `CCOC(=O)C(C#N)=C(NC(C)c1ccc(Cl)s1)c1cccnc1Cl` (mixture of isomers) [Compound 281]: the “Log P” value was 3.8^[a].
Still for that read-out and setting: under `CCOC(=O)C(C#N)=C(NC(C)c1ccc(Cl)cc1)c1sc(C)nc1C(F)(F)F` (stereo not shown) [Compound 433] stands 4.27^[a]; under `CCOC(=O)C(C#N)=C(NC(C)(C)C(=O)OC)c1sccc1Br` [Compound 693], 3.23^[a].
Take `CCCCCC(C)NC(=C(C#N)C(=O)OCC)c1sccc1C(F)(F)F` (racemic) [Compound 849]: the “Log P” value was 5.05^[a].
As to `CCOC(=O)C(C#N)=C(NC(C)c1ccccn1)c1cn(C)nc1C(F)(F)F` (racemic) [Compound 140], the “Log P” value is 2.75^[a].
With `CCOC(=O)C(C#N)=C(NC(C)c1ccn(C)n1)c1cccnc1C(F)F` (racemic) [Compound 263], the “Log P” value is 2.18^[a].
With `CCOC(=O)C(C#N)=C(NC(C)COc1cccc(C(F)(F)F)c1)c1cccnc1Cl` (stereo not shown) [Compound 1160], the “Log P” value was 4.13^[a].
With `CCOC(=O)C(C#N)=C(NC1CCCCC1)c1cc(Cl)sc1Cl` [Compound 1630], the “Log P” value was 4.92^[a].
For `COC(=O)C(C#N)=C(NC(C)c1ccc(Cl)cc1Cl)c1cccnc1Cl` (stereo not shown) [Compound 374], the “Log P” value was 3.73^[a].
Regarding `CCOC(=O)C(C#N)=C(NCc1nc(C)cs1)c1cn(C)nc1C(F)F` [Compound 189], the “Log P” value was 2.3^[a].
For `CCOC(=O)C(C#N)=C(NC(C)c1cnc(Cl)s1)c1cccnc1Cl` (stereo not shown) [Compound 1444], the log partition coefficient (Log P) is 3.1^[a].
Still for that read-out and setting: under `CCOC(=O)C(C#N)=C(NC(C)C(=O)Nc1ccc2ccccc2c1)c1sccc1Br` (racemic) [Compound 669] stands 3.89^[a].
Regarding `CCOC(=O)C(C#N)=C(NC(C)c1nccs1)c1ccnc(C)c1Cl` (stereo not shown) [Compound 1285], the “Log P” value was 2.57^[a].
On the same count and under the same terms, under `CCOCC(CC)NC(=C(C#N)C(=O)OCC)c1cn(C)nc1C(F)F` (stereo not shown) [Compound 1351] stands 3.08^[a]; under `COC(=O)C(C#N)=C(NC(C)C(=O)OC)c1sc(C)nc1C(F)(F)F` (stereo not shown) [Compound 665], 2.62^[a]; under `CCOC(=O)C(C#N)=C(NC(CC(C)C)C(=O)OCC)c1cccnc1Cl` (stereo not shown) [Compound 1196], 3.89^[a].
Regarding `C#CCNC(=O)C(C#N)=C(NC(C)c1nccs1)c1cccnc1Cl` (stereo not shown) [Compound 317], the “Log P” value is 2.03^[a].
As for `CCOC(=O)C(C#N)=C(NC(C(=O)OC)C(C)C)c1sccc1C(F)(F)F` (stereo not shown) [Compound 659], the “Log P” value is 3.62^[a].
Turning to `CCOC(=O)C(C#N)=C(NCCOC)c1cccnc1Cl` [Compound 1183], the “Log P” value is 2.17^[a].
Still for that read-out and setting: then `CCOC(=O)C(C#N)=C(NC(CC)CC)c1cccnc1Cl` [Compound 1371], with 3.35^[a]; and `CCC(NC(=C(C#N)C(=O)OC)c1cccnc1Cl)c1ccccc1` (stereo not shown) [Compound 405], with 3.02^[a]; and `CCOC(=O)C(C#N)=C(NC1(C#N)CC1)c1cn(C)nc1C(F)F` [Compound 1132], with 2.1^[a].
Regarding `CCOC(=O)C(C#N)=C(NC(C)c1ccc(Cl)cc1)c1ccncc1F` (racemic) [Compound 546], the “Log P” value is 3.48^[a].
Still for that read-out and setting: then `CCOC(=O)C(C#N)=C(Nc1ccc(OC)cc1)c1cccnc1Cl` [Compound 1153], with 2.98^[a]; and `CCOC(=O)C(C#N)=C(NCc1nccs1)c1ncc(C(F)(F)F)cc1Cl` [Compound 75], with 2.84^[a].
As for `CCOC(=O)C(C#N)=C(NC(C)C1CC1)c1cnn(C)c1Cl` (stereo not shown) [Compound 1482], the “Log P” value is 2.98^[a].
`CCOC(=O)C(C#N)=C(NC(C#N)CC(C)C)c1cn(C)nc1C(F)F` (racemic) [Compound 1252]: the “Log P” value was 3.04^[a].
Take `COC(=O)C(C#N)=C(NC(CC(F)(F)F)c1ccccc1)c1cccnc1Cl` (stereo not shown) [Compound 389]: the “Log P” value is 2.98^[a].
Turning to `C#CC(C)(C)NC(=C(C#N)C(=O)OCC)c1cn(C)nc1C=C` [Compound 1035], the “Log P” value is 2.54^[a].
On to `CCOC(=O)C(C#N)=C(NC(C)c1sc(C)nc1C)c1sccc1Br` (stereo not shown) [Compound 215], for which the “Log P” value was 3.23^[a].
With `CCOC(=O)C(C#N)=C(NCc1ccc(C)c(C)n1)c1cnn(C)c1Cl` [Compound 1542], the “Log P” value was 1.66^[a].
For the compound `CCOC(=O)C(C#N)=C(Nc1cccc(SC)c1)c1cn(C)nc1C(F)F` [Compound 498], the “Log P” value was 3.17^[a].
The same measure, in the same setting: under `CCC1CCCC(C)C1NC(=C(C#N)C(=O)OC)c1cccnc1Cl` (stereo not shown) [Compound 1060] stands 3.99^[a].

Staying with this data set, now noted: pH 7.5.
In the case of `CCOC(=O)C(C#N)=C(NC(C)C(N)=S)c1cccnc1Cl` (stereo not shown) [Compound 708], the “Log P” value is 1.87.
On the same count and under the same terms, under `CCOC(=O)C(C#N)=C(NC(C)CC#N)c1cccnc1Cl` (stereo not shown) [Compound 792] stands 2.13; under `CC(C)C(C)NC(=C(C#N)C(=O)NCC(F)(F)F)c1cccnc1Cl` (stereo not shown) [Compound 992], 3.16.
`CCOC(=O)C(C#N)=C(NC(C)C(C)C)c1cccnc1Cl` (stereo not shown) [Compound 984]: the “Log P” value amounted to 3.22.
Still for that read-out and setting: then `CCOC(=O)C(C#N)=C(NC(C)C)c1cccnc1Cl` [Compound 823], with 2.53; and `CCOC(=O)C(C#N)=C(Nc1ccc(F)c(F)c1)c1cccnc1Cl` [Compound 1597], with 2.96.
In the case of `CCOC(=O)C(C#N)=C(NC(C)c1nccs1)c1ccc(Cl)nc1Cl` (stereo not shown) [Compound 72], the “Log P” value came to 3.01.
Turning to `C#CCNC(=O)C(C#N)=C(NC(C)C(C)C)c1cccnc1Cl` (stereo not shown) [Compound 991], the “Log P” value was found to be 2.68.
